Test results reported in ChEMBL document CHEMBL3217490, “An approach to enzyme inhibition employing reversible boronate ester formation” (Medchemcomm, 2011).
Active and inactive are the calls of the source. The calls are words filed in the database; no cut-off is given here.

What was measured:
[1] = Dissociation constant, pKa of the compound; format: physicochemical
[2] = Inhibition of alpha-chymotrypsin (unknown origin); parameters: species or system Homo sapiens
[3] = Inhibition of Escherichia coli beta-lactamase AmpC
Homo sapiens [4] = species: Homo sapiens; test: Binding affinity to alpha-chymotrypsin (unknown origin) at 1 mM at pH 5.8 by 11B-NMR analysis in presence of D-fructose
Homo sapiens [5] = species: Homo sapiens; test: Binding affinity to alpha-chymotrypsin (unknown origin) at 5 mM by [1H] waterLOGSY NMR analysis in presence of D-fructose
Homo sapiens [6] = species: Homo sapiens; test: Binding affinity to alpha-chymotrypsin (unknown origin) at 5 mM by [1H] waterLOGSY NMR analysis in presence of L-fructose
Homo sapiens [7] = species: Homo sapiens; test: Binding affinity to alpha-chymotrypsin (unknown origin) at 1 mM at pH 5.8 by 11B-NMR analysis
Homo sapiens [8] = species: Homo sapiens; test: Inhibition of alpha-chymotrypsin (unknown origin) using succinyl-Ala-Ala-Pro-Phe-para-nitroanilide as substrate assessed as residual activity at 25 uM after 10 mins in presence of D-fructose relative to control
Homo sapiens [9] = species: Homo sapiens; test: Inhibition of alpha-chymotrypsin (unknown origin) using succinyl-Ala-Ala-Pro-Phe-para-nitroanilide as substrate assessed as residual activity at 25 uM after 10 mins in presence of D-glucose relative to control
Homo sapiens [10] = species: Homo sapiens; test: Inhibition of alpha-chymotrypsin (unknown origin) using succinyl-Ala-Ala-Pro-Phe-para-nitroanilide as substrate assessed as residual activity at 25 uM after 10 mins in presence of L-glucose relative to control
Homo sapiens [11] = species: Homo sapiens; test: Inhibition of alpha-chymotrypsin (unknown origin) using succinyl-Ala-Ala-Pro-Phe-para-nitroanilide as substrate assessed as residual activity at 25 uM after 10 mins in presence of L-fructose relative to control
Homo sapiens [12] = species: Homo sapiens; test: Binding affinity to alpha-chymotrypsin (unknown origin) at 1 mM at pH 5.8 by 11B-NMR analysis in presence of L-fructose
Homo sapiens [13] = species: Homo sapiens; test: Binding affinity to alpha-chymotrypsin (unknown origin) at 1 mM at pH 5.8 by 11B-NMR analysis in presence of L-sorbose
Homo sapiens [14] = species: Homo sapiens; test: Binding affinity to alpha-chymotrypsin (unknown origin) at 1 mM at pH 5.8 by 11B-NMR analysis in presence of D-sorbose

Row | pKa [1] | IC50 [2] | Activity (Homo sapiens [4]) | Activity (Homo sapiens [5]) | Activity (Homo sapiens [6]) | SMILES | also measured
1 | 8.88 | – | – | – | – | OB(O)c1ccc2ccccc2c1 | –
2 | 7.3 | 14 µM | Active | Active | inactive | OB(O)c1cc2ccccc2o1 | IC50 [3]: 0.22 µM
3 | 7.44 | 5 µM | Active | Active | inactive | OB(O)c1cc2ccccc2s1 | Activity (Homo sapiens [7]): Active; Activity (Homo sapiens [8]): 78%; Activity (Homo sapiens [9]): 97%; Activity (Homo sapiens [10]): 94%; Activity (Homo sapiens [11]): 97%; Activity (Homo sapiens [12]): Active; Activity (Homo sapiens [13]): Active; Activity (Homo sapiens [14]): Active

Second part, the molecule before the results:

Row | SMILES | pKa [1] | IC50 [2] | Activity (Homo sapiens [4]) | Activity (Homo sapiens [5]) | Activity (Homo sapiens [6]) | also measured
4 | OB(O)c1ccc(O)cc1 | 10 | – | – | – | – | –
5 | CCB(O)O | 10 | – | – | – | – | –
6 | OB(O)O [BORIC ACID] | 10 | – | – | – | – | –
